The CombiSolv-Exp solvation set (Vermeire and Green 2021)
Blank lines part the entries; values can stand above or below the compound they belong to.

Assay: solvent given as SMILES

SMILES: CN(C)C
- solvation free energy, 298 K (in CC(C)=O): -2.56 kcal/mol
- solvation free energy, 298 K (in CCCCCC): -2.63 kcal/mol
- solvation free energy, 298 K (in CCCCCCC): -2.44 kcal/mol
- solvation free energy, 298 K (in CCCCO): -2.91 kcal/mol
- solvation free energy, 298 K (in CCCO): -3.49 kcal/mol
- solvation free energy, 298 K (in CCO): -3.64 kcal/mol
- solvation free energy, 298 K (in CN(C)C=O): -2.41 kcal/mol
- solvation free energy, 298 K (in ClC(Cl)(Cl)Cl): -2.89 kcal/mol
- solvation free energy, 298 K (in ClC(Cl)Cl): -3.9 kcal/mol
- solvation free energy, 298 K (in O): -3.2 kcal/mol

SMILES: CCCC=CC=O
- solvation free energy, 298 K (in O): -3.68 kcal/mol

SMILES: CCCCC(C)CCC (stereo not drawn)
- solvation free energy, 298 K (in O): 3.57 kcal/mol

SMILES: COCCN
- solvation free energy, 298 K (in O): -6.55 kcal/mol

SMILES: c1ccc2nc3ccccc3cc2c1
- solvation free energy, 298 K (in O): -6.75 kcal/mol

SMILES: CC1=CCC2C3C1C2(C)CCCC3(C)C (stereo not drawn)
- solvation free energy, 298 K (in O): 0.29 kcal/mol

SMILES: Clc1cc(-c2cc(Cl)c(Cl)c(Cl)c2Cl)c(Cl)c(Cl)c1Cl
- solvation free energy, 298 K (in CCCCCCCCO): -15.2 kcal/mol
- solvation free energy, 298 K (in O): -3.77 kcal/mol

SMILES: Oc1cccc(Cl)c1
- solvation free energy, 298 K (in CCCCCC): -6.52 kcal/mol
- solvation free energy, 298 K (in CCCCCCC): -6.51 kcal/mol
- solvation free energy, 298 K (in CCCCCCCC): -6.48 kcal/mol
- solvation free energy, 298 K (in CCCCCCCCCC): -6.48 kcal/mol
- solvation free energy, 298 K (in Cc1ccc(C)cc1): -7.97 kcal/mol
- solvation free energy, 298 K (in Cc1cccc(C)c1): -8.05 kcal/mol
- solvation free energy, 298 K (in Cc1ccccc1C): -8.07 kcal/mol
- solvation free energy, 298 K (in O): -6.62 kcal/mol

SMILES: CCC(C)(O)CC
- solvation free energy, 298 K (in O): -4.2 kcal/mol

SMILES: CN(C)CCc1ccc(O)cc1
- solvation free energy, 298 K (in C=CCCCCCCC=C): -10.1 kcal/mol
- solvation free energy, 298 K (in O): -11.3 kcal/mol

SMILES: Clc1c(Cl)c(Cl)c2ccccc2c1Cl
- solvation free energy, 298 K (in CCCCCCCCC=CCCCCCCCC(=O)OCC(COC(=O)CCCCCCCC=CCCCCCCCC)OC(=O)CCCCCCCC=CCCCCCCCC): -9.56 kcal/mol
- solvation free energy, 298 K (in O): -2.69 kcal/mol

SMILES: O=S1OCC2C(CO1)C1(Cl)C(Cl)=C(Cl)C2(Cl)C1(Cl)Cl (stereo not drawn)
- solvation free energy, 298 K (in CCCCCCCCO): -13 kcal/mol

SMILES: FC(F)C(F)Oc1ccccc1 (stereo not drawn)
- solvation free energy, 298 K (in O): -1.29 kcal/mol

SMILES: Clc1ccc(-c2cc(Cl)ccc2Cl)cc1
- solvation free energy, 298 K (in CCCCCCCCO): -10.8 kcal/mol

SMILES: COS(C)(=O)=O
- solvation free energy, 298 K (in O): -4.87 kcal/mol

SMILES: CN1C(C(=O)Nc2ccccn2)=C(O)c2ccccc2S1(=O)=O
- solvation free energy, 298 K (in CN(C)C=O): -21 kcal/mol
- solvation free energy, 298 K (in NC=O): -19.3 kcal/mol
- solvation free energy, 298 K (in O): -15.8 kcal/mol

The next lines start with the values.

- solvation free energy, 298 K (in O): -3.74 kcal/mol
SMILES: CCOC(=O)c1ccccc1

- solvation free energy, 298 K (in O): -5.05 kcal/mol
SMILES: CN(C)Cc1ccccc1

- solvation free energy, 298 K (in O): -6.7 kcal/mol
SMILES: CCOC(C)O (stereo not drawn)

- solvation free energy, 298 K (in O): -9.65 kcal/mol
SMILES: N#Cc1cccc(O)c1

- solvation free energy, 298 K (in O): 0.27 kcal/mol
SMILES: CCCCCCCI

- solvation free energy, 298 K (in O): -5.23 kcal/mol
SMILES: CCOC(OCC)Oc1ccccc1

- solvation free energy, 298 K (in C1CCOC1): -4.94 kcal/mol
- solvation free energy, 298 K (in C1COCCO1): -4.69 kcal/mol
- solvation free energy, 298 K (in CC(O)CO): -3.53 kcal/mol
- solvation free energy, 298 K (in CCCCCC): -4.15 kcal/mol
- solvation free energy, 298 K (in CCCCCCC): -4.13 kcal/mol
- solvation free energy, 298 K (in CCCCCCCCCC): -3.48 kcal/mol
- solvation free energy, 298 K (in CCCCCCCCCCCCCCCC): -3.81 kcal/mol
- solvation free energy, 298 K (in CN(C)C=O): -4.75 kcal/mol
- solvation free energy, 298 K (in COCCO): -4.4 kcal/mol
- solvation free energy, 298 K (in N#Cc1ccccc1): -4.53 kcal/mol
- solvation free energy, 298 K (in NC=O): -2.8 kcal/mol
- solvation free energy, 298 K (in O): -0.8 kcal/mol
- solvation free energy, 298 K (in OCCO): -2.91 kcal/mol
SMILES: Fc1ccccc1

- solvation free energy, 298 K (in O): -12.8 kcal/mol
SMILES: CCCCOCCOC(=O)c1ccccc1C(=O)OCCOCCCC

- solvation free energy, 298 K (in O): -7.32 kcal/mol
SMILES: CCCCCCCCCCCCCC(=O)OCC
